{
  "source": "ChEMBL document CHEMBL1201862",
  "about": "“PubChem BioAssay data set” (2004)",
  "key": {"[1]": {"molecular_target": "T1, Adenosylmethionine-8-amino-7-oxononanoate aminotransferase (Mycobacterium tuberculosis, UniProt P9WQ81)", "T1 sequence (P9WQ81 whole entry)": "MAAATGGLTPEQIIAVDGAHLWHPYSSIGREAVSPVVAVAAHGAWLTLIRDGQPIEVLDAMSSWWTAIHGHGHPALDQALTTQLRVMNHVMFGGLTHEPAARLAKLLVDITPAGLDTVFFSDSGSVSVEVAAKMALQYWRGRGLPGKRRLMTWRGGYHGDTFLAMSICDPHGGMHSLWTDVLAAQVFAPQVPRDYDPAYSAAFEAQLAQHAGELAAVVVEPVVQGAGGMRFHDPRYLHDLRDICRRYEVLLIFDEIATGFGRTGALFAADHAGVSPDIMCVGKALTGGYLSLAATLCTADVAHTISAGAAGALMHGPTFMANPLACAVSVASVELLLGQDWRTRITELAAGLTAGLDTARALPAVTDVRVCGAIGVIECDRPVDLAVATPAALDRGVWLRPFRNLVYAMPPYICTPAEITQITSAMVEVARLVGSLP", "test": "Mycobacterium tuberculosis BioA enzyme inhibitor Measured in Biochemical System Using Plate Reader - 2163-02_Inhibitor_Dose_CherryPick_Activity.", "type": "functional, Mycobacterium tuberculosis UT205"}, "[2]": {"test": "MC4R antagonists, dose response, counter-screen for LGR2 antagonist project, cell-based, plate reader, cherry pick (AID 743444);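 further: transfected HEK 293 cells stimulated with alpha-MSH peptide; potency of inhibitors of the alpha-MSH evoked signal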", "type": "functional"}, "[3]": {"test": "LGR2 antagonists, dose response, cell-based, HEK293, CRE-luciferase reporter, cherry pick, set 2 (AID 743343);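 further: transfected cells were stimulated with diluted bursicon conditioned medium after compound addition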", "type": "functional"}, "Cytochrome P450 3A4": {"molecular_target": "Cytochrome P450 3A4 (Homo sapiens, UniProt P08684)", "sequence (P08684 whole entry)": "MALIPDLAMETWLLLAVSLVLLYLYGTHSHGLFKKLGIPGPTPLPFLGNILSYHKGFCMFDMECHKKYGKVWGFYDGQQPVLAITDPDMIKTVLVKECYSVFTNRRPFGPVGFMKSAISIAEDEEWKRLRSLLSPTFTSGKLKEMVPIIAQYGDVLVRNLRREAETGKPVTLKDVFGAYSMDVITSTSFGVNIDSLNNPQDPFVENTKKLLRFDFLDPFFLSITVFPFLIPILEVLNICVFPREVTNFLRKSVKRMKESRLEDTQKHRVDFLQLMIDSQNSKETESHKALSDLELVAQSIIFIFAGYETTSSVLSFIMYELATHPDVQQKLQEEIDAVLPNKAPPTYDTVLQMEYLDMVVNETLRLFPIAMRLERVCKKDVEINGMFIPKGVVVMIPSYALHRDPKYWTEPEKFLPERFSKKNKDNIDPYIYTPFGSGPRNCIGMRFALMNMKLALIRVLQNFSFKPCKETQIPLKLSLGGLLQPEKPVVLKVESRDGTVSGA"}, "[4]": {"test": "insulin promoter down-regulators in MIN6 cells, imaging, high-content screening, mouse beta cells (AID 1628)", "type": "functional"}, "[5]": {"test": "cytotoxicity in MIN6 insulinoma cells, dose response, cytotoxicity control, cell-based, mouse insulinoma (AID 2122);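 further: confirmatory high-throughput counterscreen run to flag cytotoxic compounds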", "type": "functional"}, "[6]": {"test": "Luminescence Cell-Based Dose Response HTS to Identify Activators of Luciferase Translation or Activity in H4 […] Cells. [Related pubchem assays: 1829 (Project Summary), 1814 (Primary HTS)]", "type": "functional"}, "cells [7]": {"test": "cells", "type": "functional, cell-based"}, "[8]": {"test": "Luminescence Cell-Based Dose Confirmation HTS to Identify Activators of 5'UTR Stem-Loop Driven Alpha-Synuclein mRNA Translation in H4 Neuroglioblastoma Cells. [Related pubchem assays: 1829 (Project Summary), 1814 (Primary HTS)]", "type": "functional"}, "H4": {"test_system": "H4", "test": "Luminescence Cell-Based Dose Response HTS to Identify Activators of 5'UTR Stem-Loop Driven Prion Protein mRNA Translation in H4 Neuroglioblastoma Cells. [Related pubchem assays: 1829 (Project Summary), 1814 (Primary HTS)]", "type": "functional", "settings": "Homo sapiens"}, "cells [9]": {"test": "cells", "type": "functional, cell-based", "remark": "listed apart in the source"}, "Cytochrome P450 1A2": {"molecular_target": "T2, Cytochrome P450 1A2 (Homo sapiens, UniProt P05177)", "T2 sequence (P05177 whole entry)": "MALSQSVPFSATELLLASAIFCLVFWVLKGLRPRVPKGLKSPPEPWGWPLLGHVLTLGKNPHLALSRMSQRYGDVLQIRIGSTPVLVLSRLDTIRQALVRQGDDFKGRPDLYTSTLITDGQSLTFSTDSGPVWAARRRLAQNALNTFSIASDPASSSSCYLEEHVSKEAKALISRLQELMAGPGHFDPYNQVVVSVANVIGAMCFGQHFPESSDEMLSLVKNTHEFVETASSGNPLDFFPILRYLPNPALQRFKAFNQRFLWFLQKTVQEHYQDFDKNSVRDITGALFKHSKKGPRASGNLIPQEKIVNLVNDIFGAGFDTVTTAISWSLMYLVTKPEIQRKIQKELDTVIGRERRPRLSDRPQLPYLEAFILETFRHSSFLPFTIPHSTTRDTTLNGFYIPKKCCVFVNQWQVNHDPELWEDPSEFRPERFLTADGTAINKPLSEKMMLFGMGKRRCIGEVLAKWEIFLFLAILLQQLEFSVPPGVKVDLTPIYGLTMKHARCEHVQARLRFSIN"}, "H9c2": {"test_system": "H9c2", "test": "cells", "type": "functional, cell-based", "settings": "Rattus norvegicus, H9c2, Myocardium"}, "Nonstructural protein 1": {"molecular_target": "Nonstructural protein 1 (Influenza A virus, UniProt Q194T2)", "sequence (Q194T2 whole entry)": "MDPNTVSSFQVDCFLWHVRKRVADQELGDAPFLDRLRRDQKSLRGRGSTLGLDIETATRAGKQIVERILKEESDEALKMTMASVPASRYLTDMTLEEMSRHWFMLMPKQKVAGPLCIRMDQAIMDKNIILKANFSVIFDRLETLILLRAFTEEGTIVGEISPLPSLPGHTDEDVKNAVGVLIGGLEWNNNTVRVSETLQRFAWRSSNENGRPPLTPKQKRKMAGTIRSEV", "type": "functional, Influenza A virus (A/California/07/2009(H1N1))"}, "[10]": {"test": "NIH-3T3 fibroblast cytotoxicity, dose response, cytotoxicity control, cell-based, fluorescence, Alamar Blue, secondary assay (AID 2327);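 further: NIH-3T3 mouse fibroblasts cultured with fluconazole at 8 µg/mL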", "type": "functional"}, "[11]": {"test": "C. albicans growth with fluconazole, confirmation, fluorescence, retest (AID 2467)", "type": "functional, cell-based"}, "SN12K1": {"test_system": "SN12K1", "test": "cells", "type": "functional", "settings": "Homo sapiens"}, "P388/ADR": {"test_system": "P388/ADR", "test": "cells", "type": "functional", "settings": "Mus musculus"}, "P388": {"test_system": "P388", "test": "cells", "type": "functional", "settings": "Mus musculus"}, "[12]": {"test": "cytotoxicity in OVCAR8 ovarian cancer cells, dose response, PAX8 project, cell-based, plate reader, dry powder samples (AID 743197)", "type": "functional", "settings": "OVCAR-8"}, "[13]": {"test": "NIH:OVCAR-3 ovarian cancer cell cytotoxicity, dose response, PAX8 inhibitor project, plate reader, dry powder samples (AID 743044)", "type": "functional, cell-based"}, "Paired box protein Pax-8": {"molecular_target": "Paired box protein Pax-8 (Homo sapiens, UniProt Q06710)", "sequence (Q06710 whole entry)": "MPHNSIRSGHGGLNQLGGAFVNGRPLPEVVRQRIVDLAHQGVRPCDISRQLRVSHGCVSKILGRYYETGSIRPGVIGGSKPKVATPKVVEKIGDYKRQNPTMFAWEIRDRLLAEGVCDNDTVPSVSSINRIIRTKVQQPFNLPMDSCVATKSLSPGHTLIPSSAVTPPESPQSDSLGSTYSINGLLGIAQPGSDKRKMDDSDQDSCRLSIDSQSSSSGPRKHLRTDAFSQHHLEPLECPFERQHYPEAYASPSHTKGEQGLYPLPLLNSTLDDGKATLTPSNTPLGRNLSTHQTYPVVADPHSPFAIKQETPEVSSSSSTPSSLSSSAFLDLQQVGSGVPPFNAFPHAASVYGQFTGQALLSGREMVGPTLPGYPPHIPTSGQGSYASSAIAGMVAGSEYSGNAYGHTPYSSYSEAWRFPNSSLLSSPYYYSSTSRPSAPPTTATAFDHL", "test": "inhibitors of PAX8-driven TPO luciferase reporter, dose response, RMG-I cells, cherry-pick (AID 687027)", "type": "functional, cell-based"}, "[14]": {"test": "THP-1 cell cytotoxicity, dose response, cytotoxicity control for non-replicating M. tuberculosis project (AID 489025)", "type": "functional"}, "[15]": {"test": "Vero E6 cell cytotoxicity, dose response, cytotoxicity control for non-replicating M. tuberculosis project, secondary assay (AID 492998)", "type": "functional, VeroE6", "settings": "Vero C1008"}, "INS1": {"test_system": "INS1", "test": "beta cell apoptosis inhibitors, cytokine rescue, dose response, luminescence, retest (AID 449756);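 further: cell death triggered by IL-1 beta plus TNF-alpha plus IFN-gamma mixture; protective hits raise ATP signal compared with cytokine alone wells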", "type": "functional, cell-based", "settings": "Rattus norvegicus"}},
  "note": "Calls of active or inactive are those of the source.",
  "data": [
    {"smiles": "O=C(CSc1nncs1)N1c2ccccc2Sc2ccccc21", "values": [
      {"measurement": "AC50", "setting": "[1]", "result": "1.56 µM (active)"}
    ]},
    {"smiles": "Cc1ccc(-c2nnc(-c3ccccc3Br)o2)cc1", "values": [
      {"measurement": "AC50", "setting": "[2]", "result": "20.3 µM (active)"},
      {"measurement": "AC50", "setting": "[3]", "result": "14.3 µM (active)"}
    ]},
    {"smiles": "COc1ccc(C(=O)N2CCC3(CC2)CCN(c2ccccc2)CC3)cc1", "values": [
      {"measurement": "AC50", "setting": "Cytochrome P450 3A4", "result": "inconclusive"}
    ]},
    {"smiles": "Cc1cc(C(=O)CSc2nc3ccccc3[nH]2)c(C)n1Cc1ccco1", "values": [
      {"measurement": "IC50", "setting": "[4]", "result": "1.93 µM (active)"},
      {"measurement": "IC50", "setting": "[5]", "result": "1.29 µM (active)"}
    ]},
    {"smiles": "COc1ccc2oc(=O)c(C(=O)NC3CCCCCC3)cc2c1", "values": [
      {"measurement": "EC50", "setting": "[6]", "result": "32.6 µM (active)"},
      {"measurement": "EC50", "setting": "cells [7]", "result": "> 350 µM (not active)"},
      {"measurement": "EC50", "setting": "[8]", "result": "28.6 µM (active)"},
      {"measurement": "EC50", "setting": "H4", "result": "19.8 µM (active)"},
      {"measurement": "EC50", "setting": "cells [9]", "result": "> 350 µM (not active)"}
    ]},
    {"smiles": "O=C(c1cccc(F)c1)N1CCC2(CC1)CCN(c1ccccc1)CC2", "values": [
      {"measurement": "AC50", "setting": "Cytochrome P450 3A4", "result": "inconclusive"}
    ]},
    {"smiles": "COc1ccc(OC)c(C2=Nn3c(nnc3-c3cc(C)[nH]n3)SC2)c1", "values": [
      {"measurement": "EC50", "setting": "cells [7]", "result": "> 350 µM (not active)"},
      {"measurement": "EC50", "setting": "cells [9]", "result": "> 350 µM (not active)"}
    ]},
    {"smiles": "O=C1C=C(c2ccccc2)CC(c2cccs2)C1n1cnc([N+](=O)[O-])c1", "note": "(stereo not given)", "values": [
      {"measurement": "EC50", "setting": "cells [7]", "result": "> 350 µM (not active)"},
      {"measurement": "EC50", "setting": "cells [9]", "result": "> 350 µM (not active)"}
    ]},
    {"smiles": "CCS(=O)(=O)N1CCN(c2c(Cl)cccc2[N+](=O)[O-])CC1", "values": [
      {"measurement": "AC50", "setting": "Cytochrome P450 1A2", "result": "15.8 µM (inconclusive)"},
      {"measurement": "AC50", "setting": "Cytochrome P450 3A4", "result": "inconclusive"}
    ]},
    {"smiles": "CCOc1cccc(-c2c(C(=O)N/N=C(\\C)c3ccccn3)nnn2-c2nonc2N)c1", "values": [
      {"measurement": "IC50", "setting": "H9c2", "result": "> 79 µM (inactive)"},
      {"measurement": "IC50", "setting": "Nonstructural protein 1", "result": "3.36 µM (active)"},
      {"measurement": "EC50", "setting": "cells [7]", "result": "6.32 µM (active)"},
      {"measurement": "EC50", "setting": "[10]", "result": "18.2 µM (active)"},
      {"measurement": "EC50", "setting": "cells [9]", "result": "> 350 µM (not active)"},
      {"measurement": "EC50", "setting": "[11]", "result": "> 38 µM (not active)"}
    ]},
    {"smiles": "O=C[C@@H](CO)O[C@H](C=O)n1cnc2c(=O)nc[nH]c21", "values": [
      {"measurement": "GI50", "setting": "SN12K1", "result": "284 µM (inactive)"},
      {"measurement": "GI50", "setting": "P388/ADR", "result": "69.2 µM (inactive)"},
      {"measurement": "GI50", "setting": "P388", "result": "76 µM (inactive)"}
    ]},
    {"smiles": "C/C=C/c1ccc2c(c1)O[C@@H](CN(C)C(=O)Cc1cccnc1)[C@H](C)CN([C@H](C)CO)S2(=O)=O", "values": [
      {"measurement": "AC50", "setting": "[1]", "result": "10.3 µM (active)"}
    ]},
    {"smiles": "CN(C(=O)CSc1nc2ccccc2c(=O)n1-c1ccccc1Cl)C1CCS(=O)(=O)C1", "note": "(stereo not given)", "values": [
      {"measurement": "AC50", "setting": "[1]", "result": "2.22 µM (active)"}
    ]},
    {"smiles": "C[C@@H]1CCCCO[C@H](CN(C)C(=O)Nc2ccc(F)cc2)[C@@H](C)CN([C@@H](C)CO)C(=O)c2cc(NS(=O)(=O)c3ccc(Cl)cc3)ccc2O1", "values": [
      {"measurement": "AC50", "setting": "[12]", "result": "35 µM (active)"},
      {"measurement": "AC50", "setting": "[13]", "result": "19.6 µM (active)"},
      {"measurement": "AC50", "setting": "Paired box protein Pax-8", "result": "4.84 µM (active)"}
    ]},
    {"smiles": "COc1cccc(N[C@@H]2c3cc4c(cc3C(c3cc(OC)c(O)c(OC)c3)[C@H]3C(=O)OCC32)OCO4)c1", "note": "(stereo not given in full)", "values": [
      {"measurement": "GI50", "setting": "SN12K1", "result": "0.0615 µM (active)"},
      {"measurement": "GI50", "setting": "P388/ADR", "result": "0.0635 µM (active)"},
      {"measurement": "GI50", "setting": "P388", "result": "< 0.01 µM (active)"}
    ]},
    {"smiles": "CCOc1ccc(C(=O)N/N=C(/C)C2C(=O)c3ccccc3C2=O)cc1", "values": [
      {"measurement": "CC50", "setting": "[14]", "result": "> 40 µM (active)"},
      {"measurement": "CC50", "setting": "[15]", "result": "> 20 µM (active)"}
    ]},
    {"smiles": "COc1ccc(/C=N/NC(=O)c2nc(-c3ccccc3)n(-c3ccccc3)n2)c(O)c1", "values": [
      {"measurement": "EC50", "setting": "cells [7]", "result": "10.1 µM (active)"},
      {"measurement": "AC50", "setting": "INS1", "result": "1.47 µM (active)"},
      {"measurement": "EC50", "setting": "cells [9]", "result": "> 350 µM (not active)"}
    ]}
  ]
}
